Where two headings read alike, the source gives them in different places.
Experiments:
RdFucI [1] = type: biochemical, Raoultella sp. KDH 14
RdFucI [2] = test: Substrate specificity of RdFucI; type: biochemical, Raoultella sp. KDH 14; conditions: aldose and ketose substrates tested
Source text: In general, sugar isomerases show reactivity for various sugars. As a result of testing with various aldoses (L-fucose, D-arabinose, D-altrose, D-galactose, D-mannose and D-glucose) and ketose substrates (L-fuculose, D-ribulose, D-psicose, D-tagatose and D-fructose), the highest activity was shown against L-fuculose (115.3 U/mg) and D-ribulose (127.3 U/mg), showing much higher activities compared to activities for the other tested aldose and ketose substrates.

[3] = pH effect on RdFucI activity for fuculose; type: biochemical, Raoultella sp. KDH 14
[4] = target: the molecule itself; test: crystal structure, self-association of subunits
[5] = Temperature effect on RdFucI activity for fuculose; type: biochemical, Raoultella sp. KDH 14
Source text: (80% or more of the maximum activity) (FIG. 5a).

[6] = Reversible reaction between L-fucose and L-fuculose by RdFucI; type: biochemical, Raoultella sp. KDH 14; conditions: 10 mM substrate, 20 mM sodium phosphate pH 7, 1.5 μg RdFucI, 30° C., 1 mM MnCl2
Method: In order to identify what kind of reaction RdFucI favored in a reaction between fucose and fuculose, a reversible reaction of the recombinant enzyme was investigated over time. For this purpose, 10 mM L-fucose (FIG. 4a) or L-fuculose (FIG. 4b) included in 20 mM sodium phosphate (pH7) was used as a substrate, and was each reacted with 1.5 μg of RdFucI at 30° C. in the presence of 1 mM MnCl2, and L-fucose was experimentally quantified. In contrast, L-fuculose was expressed as a calculated value.

[7] = effect of metal ion on RdFucI activity, fuculose as substrate, Control = 100

Molecule	effect of metal ion on enzyme activity (in words) (RdFucI [1]; RdFucI)	Relative activity (%) (RdFucI [1]; [7])	further results
[Ca+2].[Cl-].[Cl-] [CaCl2]	inhibit the enzyme activity	64 ± 8	–
[Cl][Cd][Cl] [CdCl2]	increase the enzyme activity	183 ± 9	–
[Cl-].[Cl-].[Co+2] [CoCl2]	–	–	Relative activity (%) (RdFucI [1]): 353 ± 83%; effect of metal ion on enzyme activity (in words) (RdFucI [1]): increase the enzyme activity
[Cl-].[Cs+] [CsCl2]	–	101 ± 16	–
[Cl][Cu][Cl] [CuCl2]	inhibit the enzyme activity	58 ± 7	–
O=C(CO)[C@H](O)[C@H](O)CO [D-ribulose]	–	–	activity of RdFucI against substrate (RdFucI [2]): 127.3 U/mg
O=C(O)CN(CCN(CC(=O)O)CC(=O)O)CC(=O)O [EDTA]	–	–	Relative activity (%) (RdFucI [1]): 77 ± 12%
[Cl][Fe]([Cl])[Cl] [FeCl3]	inhibit the enzyme activity	74 ± 3	–
C[C@H](O)[C@@H](O)[C@@H](O)C(=O)CO [L-fuculose]	–	–	activity of RdFucI against substrate (RdFucI [2]): 115.3 U/mg
O=S(=O)([O-])[O-].[Li+].[Li+] [LiSO4]	–	101 ± 15	–
[Cl-].[Cl-].[Mg+2] [MgCl2]	increase the enzyme activity	533 ± 31	–
[Cl][Mn][Cl] [MnCl2]	increase the enzyme activity	738 ± 70	increase of enzyme activity in the presence of the metal ion (RdFucI [1]; RdFucI, fuculose as substrate): about 7 fold
[Cl][Ni][Cl] [NiCl2]	–	91 ± 13	–
[Cl-].[Cl-].[Zn+2] [ZnCl2]	increase the enzyme activity	159 ± 4	–
Tris-HCl [Tris-HCl buffer]	–	–	RdFucI activity in the buffer versus other buffer types at the same pH (in words) ([3]; pH 7, 8 and 9, 50 mM, 40° C.): much lower
L-fucose isomerase derived from Raoultella sp. KDH 14 strain (enzyme, also called RdFucI; Rd FucI) MKRISLPKIGIRPVIDGRRMGVRESLEAQTMNMAKATAALISEKLRHACGAQIECVIADTCIAGMAESAACEEKFSRQNVGVTITVTPCWCYGSETIDMDPLRPKAIWGFNGTERPGAVYLAAALAAHSQKGIPAFSIYGHDVQDADDTTIPADVEEKLLRFARAGLAVASMKGKSYLSVGGVSMGIAGSIVDHNFFESWLGMKVQAVDMTELRRRIDQKIYDEVELEMALAWADKNFRYGEDQNAQHYKRDEEQSRAVLKESLLMAMCIRDMMQGNEKLAEKGLLEESLGYNAIAAGFQGQRHWTDQYPNGDTAEALLNSSFDWNGVREPFVVATENDSLNGVAMLMGHQLTGTAQVFADVRTYWSPDAVERVTGQPLTGLAEHGIIHLINSGSAALDGSCQQRDEEGKPTMKPHWEISQKEADACLAATEWCPAIHEYFRGGGYSSRFLTEGGVPFTMTRVNLIKGLGPVLQIAEGWSVELPKAMHDQLDARTNSTWPTTWFAPRLTGKGPFADVYSVMANWGANHGVLTIGHVGADFITLAAMLRIPVCMHNVEEGKIYRPSSWSAHGMDTEGQDYRACQNYGPLYKR	–	–	binding result [4]: binds
RdFucI: L-fucose isomerase of Raoultella sp. KDH 14, amino acid sequence SEQ ID NO: 1, 591 amino acids (protein, Raoultella sp. KDH 14) MKRISLPKIGIRPVIDGRRMGVRESLEAQTMNMAKATAALISEKLRHACGAQIECVIADTCIAGMAESAACEEKFSRQNVGVTITVTPCWCYGSETIDMDPLRPKAIWGFNGTERPGAVYLAAALAAHSQKGIPAFSIYGHDVQDADDTTIPADVEEKLLRFARAGLAVASMKGKSYLSVGGVSMGIAGSIVDHNFFESWLGMKVQAVDMTELRRRIDQKIYDEVELEMALAWADKNFRYGEDQNAQHYKRDEEQSRAVLKESLLMAMCIRDMMQGNEKLAEKGLLEESLGYNAIAAGFQGQRHWTDQYPNGDTAEALLNSSFDWNGVREPFVVATENDSLNGVAMLMGHQLTGTAQVFADVRTYWSPDAVERVTGQPLTGLAEHGIIHLINSGSAALDGSCQQRDEEGKPTMKPHWEISQKEADACLAATEWCPAIHEYFRGGGYSSRFLTEGGVPFTMTRVNLIKGLGPVLQIAEGWSVELPKAMHDQLDARTNSTWPTTWFAPRLTGKGPFADVYSVMANWGANHGVLTIGHVGADFITLAAMLRIPVCMHNVEEGKIYRPSSWSAHGMDTEGQDYRACQNYGPLYKR	–	–	relative activity, of the maximum activity, at 30, 40 and 50° C. ([5]; 10 mM substrate, 1.5 μg enzyme, pH 7): ≥ 80%; temperature of highest activity ([5]; 10 mM substrate, 1.5 μg enzyme, pH 7, 10 to 80° C.): 40 °C; enzyme activity out of the 30 to 50° C. range ([5]; L-fuculose as substrate): less than 50%; relative maximum activity at pH 6 to 11 ([3]; sodium acetate, sodium phosphate and glycine-NaOH buffers): ≥ 70%; reaction rate of reverse reaction (L-fuculose to L-fucose) versus forward reaction [6]: about 5 fold
